Like-named read-outs stand apart in the source and are kept apart here. Starred links: 1 amine or outer side, 2 acyl side, 3 side chain; linkers in the order of their positions; H or OH if unused. Positions of bridges follow the written chain, without caps; N, C: chain ends. Non-standard residues stand in square brackets, D forms with d. Residues, ends and D or L forms follow the SMILES beside them. *: point of attachment. NMeF = CN[C@@H](Cc1ccccc1)C(=O)O; NMeGABA = CN(CCCC(=O)[*:2])[*:1]; NMeI = CC[C@H](C)[C@H](NC)C(=O)O; NMeL = CN[C@@H](CC(C)C)C(=O)O; NMeV = CN[C@H](C(=O)O)C(C)C; NMeA = CN[C@@H](C)C(=O)O; Piperidide = C1CCN(*)CC1; Sar = CNCC(=O)O; tBu = CC(C)(C)*
Legend:
[1] = PAMPA (parallel artificial membrane permeability assay); type: in vitro ADME; settings: for Papp at 18 hours, 50 µM: PAMPA
Outline: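 Artificial membrane was 10% (w/v) egg lecithin plus 0.5% (w/v) cholesterol in dodecane on a PVDF filter. A 10 mM DMSO stock was added at 0.5% (v/v) to donor buffer (50 mM MOPSO, pH 6.5, 5.0% glycocholic acid). After 18 h at 37 °C, LC/MS or LC/UV gave donor and acceptor levels for Pe.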

[2] = Metabolic stability in human hepatic microsome; type: in vitro ADME; settings: microsomes
[3] = membrane permeation rate (Pe), 50 mM MOPSO buffer pH 6.5 with 5.0% glycocholic acid, 37° C., 18 hours, read-out: iPAMPA Pe
[4] = pH 7.4, human hepatic microsome, NADPH(+), read-out: CL NADPH(+)

Structure (SMILES) | Papp at 18 hours, 50 µM [1, 3] [×10⁻⁶ cm/s] | microsomal CLint at 1 uM [2, 4] [µL/min/mg] | iPAMPA Pe ([1]; membrane permeation rate (Pe), 50 mM MOPSO buffer pH 6.5 with 5.0% glycocholic acid, 37° C., 18 hours) | Papp at 18 hours, 50 µM ([1]; pH 6.5) [×10⁻⁶ cm/s] | microsomal CLint at 1 uM ([2]; human, pH 7.4, CL NADPH(+)) [µL/min/mg]
CC[C@H](C)[C@@H]1NC(=O)[C@H](CC(C)C)N(C)C(=O)CN(C)C(=O)[C@H]([C@@H](C)O)NC(=O)[C@H](C)N(C)C(=O)C[C@@H](C(=O)N(C)[C@@H](C)C(=O)N2CCC[C@H]2C(=O)N[C@@H](C)C(=O)N2CCCCC2)NC(=O)[C@H](CC(C)C)N(C)C(=O)[C@H](Cc2ccccc2)N(C)C(=O)[C@H](CC(C)C)N(C)C1=O [DP-661] ([NMeA]T[Sar][NMeL]I[NMeL][NMeF][NMeL]D[NMeA]PA-Piperidide; lactam N-9) | 25 | 17 | – | – | –
CC[C@H](C)[C@@H]1NC(=O)[C@H](CC(C)C)N(C)C(=O)CN(C)C(=O)[C@H]([C@@H](C)O)NC(=O)[C@H](C)N(C)C(=O)C[C@@H](C(=O)N[C@@H](C)C(=O)N2CCC[C@H]2C(=O)N[C@@H](C)C(=O)N2CCCCC2)NC(=O)[C@H](CC(C)C)N(C)C(=O)[C@H](Cc2ccccc2)N(C)C(=O)[C@H](CC(C)C)N(C)C1=O [DP-662] ([NMeA]T[Sar][NMeL]I[NMeL][NMeF][NMeL]DAPA-Piperidide; lactam N-9) | 18 | 101 | – | – | –
CC[C@H](C)[C@@H]1NC(=O)[C@H](CC(C)C)N(C)C(=O)CN(C)C(=O)[C@H]([C@@H](C)O)NC(=O)[C@H](C)N(C)C(=O)C[C@@H](C(=O)N[C@@H](C)C(=O)N2CCCCC2)NC(=O)[C@H](CC(C)C)N(C)C(=O)[C@H](Cc2ccccc2)N(C)C(=O)[C@H](CC(C)C)N(C)C1=O [DP-664] ([NMeA]T[Sar][NMeL]I[NMeL][NMeF][NMeL]DA-Piperidide; lactam N-9) | – | 304 | 7.0E−05 | – | –
CC[C@H](C)[C@@H]1NC(=O)[C@H](C)NC(=O)C[C@@H](C(=O)N(C)[C@@H](C)C(=O)N[C@H](C(=O)N2CCC[C@H]2C(=O)N[C@H](C(=O)N[C@@H](C)C(=O)N2CCCCC2)C(C)C)[C@@H](C)CC)NC(=O)[C@@H]2CCCN2C(=O)[C@H](CC(C)C)NC(=O)[C@H](Cc2ccccc2)N(C)C(=O)[C@H]([C@@H](C)O)NC(=O)[C@H](Cc2ccccc2)N(C)C(=O)[C@H](C)N(C)C1=O [DP-665] (AI[NMeA][NMeF]T[NMeF]LPD[NMeA]IPVA-Piperidide; lactam N-9) | – | – | – | 4 | 77
CC[C@H](C)[C@H](NC(=O)[C@H](CC(C)C)NC(=O)[C@H](Cc1ccccc1)NC(=O)[C@@H]1CC(=O)N[C@@H](C)C(=O)N[C@@H]([C@@H](C)CC)C(=O)N(C)[C@@H](C)C(=O)N(C)[C@@H](Cc2ccccc2)C(=O)N[C@@H]([C@@H](C)O)C(=O)N(C)[C@@H](Cc2ccccc2)C(=O)N[C@@H](CC(C)C)C(=O)N2CCC[C@H]2C(=O)N1)C(=O)N[C@@H](C)C(=O)N1CCCCC1 [DP-666] (AI[NMeA][NMeF]T[NMeF]LPDFLIA-Piperidide; lactam N-9) | – | – | – | 3 | 74
CC[C@H](C)[C@@H]1NC(=O)[C@H](C)NC(=O)C[C@@H](C(=O)N(C)[C@@H](CC(C)C)C(=O)N(C)[C@@H](C)C(=O)N(C)[C@@H](Cc2ccccc2)C(=O)N[C@@H](C)C(=O)N2CCCCC2)NC(=O)[C@@H]2CCCN2C(=O)[C@H](CC(C)C)NC(=O)[C@H](Cc2ccccc2)N(C)C(=O)[C@H]([C@@H](C)O)NC(=O)[C@H](Cc2ccccc2)N(C)C(=O)[C@H](C)N(C)C1=O [DP-667] (AI[NMeA][NMeF]T[NMeF]LPD[NMeL][NMeA][NMeF]A-Piperidide; lactam N-9) | 19 | 39 | – | – | –
CC[C@H](C)[C@H](NC(=O)[C@H](C)N(C)C(=O)[C@@H]1CC(=O)N[C@@H](C)C(=O)N[C@@H]([C@@H](C)CC)C(=O)N(C)[C@@H](C)C(=O)N(C)[C@@H](Cc2ccccc2)C(=O)N[C@@H]([C@@H](C)O)C(=O)N(C)[C@@H](Cc2ccccc2)C(=O)N[C@@H](CC(C)C)C(=O)N2CCC[C@H]2C(=O)N1)C(=O)N1CCCCC1 [DP-668] (AI[NMeA][NMeF]T[NMeF]LPD[NMeA]I-Piperidide; lactam N-9) | – | – | – | 26 | 142
CC[C@H](C)[C@H](NC(=O)[C@@H]1CC(=O)N[C@@H](C)C(=O)N[C@@H]([C@@H](C)CC)C(=O)N(C)[C@@H](C)C(=O)N(C)[C@@H](Cc2ccccc2)C(=O)N[C@@H]([C@@H](C)O)C(=O)N(C)[C@@H](Cc2ccccc2)C(=O)N[C@@H](CC(C)C)C(=O)N2CCC[C@H]2C(=O)N1)C(=O)N1CCCCC1 [DP-669] (AI[NMeA][NMeF]T[NMeF]LPDI-Piperidide; lactam N-9) | – | – | – | 29 | 54
CC[C@H](C)[C@H]1C(=O)N(C)[C@@H](CC(C)C)C(=O)N[C@@H](Cc2ccccc2)C(=O)N[C@@H]([C@@H](C)O)C(=O)N[C@@H](CC(C)C)C(=O)N(C)[C@@H](Cc2ccccc2)C(=O)N(C)[C@@H](C(C)C)C(=O)N[C@H](C(=O)N(C)CC(=O)N(C)[C@@H](C)C(=O)N(C)[C@@H](CC(C)C)C(=O)N[C@@H](C)C(=O)N2CCCCC2)CC(=O)N[C@H](C)C(=O)N[C@@H](C)C(=O)N1C [DP-670] ([dA]A[NMeI][NMeL]FTL[NMeF][NMeV]D[Sar][NMeA][NMeL]A-Piperidide; lactam N-10) | 12 | 22 | – | – | –
CC[C@H](C)[C@H]1C(=O)N(C)[C@@H](CC(C)C)C(=O)N[C@@H](Cc2ccccc2)C(=O)N[C@@H]([C@@H](C)O)C(=O)N[C@@H](CC(C)C)C(=O)N(C)[C@@H](Cc2ccccc2)C(=O)N(C)[C@@H](C(C)C)C(=O)N[C@H](C(=O)N2CCC[C@H]2C(=O)N[C@H](C(=O)N[C@@H](C)C(=O)N2CCCCC2)C(C)C)CC(=O)N[C@H](C)C(=O)N[C@@H](C)C(=O)N1C [DP-671] ([dA]A[NMeI][NMeL]FTL[NMeF][NMeV]DPVA-Piperidide; lactam N-10) | 16 | 39 | – | – | –
CC[C@H](C)[C@H]1C(=O)N(C)[C@@H](CC(C)C)C(=O)N[C@@H](Cc2ccccc2)C(=O)N[C@@H]([C@@H](C)O)C(=O)N[C@@H](CC(C)C)C(=O)N(C)[C@@H](Cc2ccccc2)C(=O)N(C)[C@@H](C(C)C)C(=O)N[C@H](C(=O)N(C)CC(=O)N[C@@H](C)C(=O)N2CCCCC2)CC(=O)N[C@H](C)C(=O)N[C@@H](C)C(=O)N1C [DP-672] ([dA]A[NMeI][NMeL]FTL[NMeF][NMeV]D[Sar]A-Piperidide; lactam N-10) | 13 | 72 | – | – | –
CC(C)C[C@@H]1NC(=O)[C@H](C)NC(=O)C[C@@H](C(=O)N2CCCCC2)NC(=O)[C@H](Cc2ccccc2)N(C)C(=O)[C@H](CC(C)C)N(C)C(=O)[C@H](C)NC(=O)[C@H](Cc2ccccc2)N(C)C(=O)[C@H](CC(C)C)N(C)C1=O [DP-673] (AL[NMeL][NMeF]A[NMeL][NMeF]D-Piperidide; lactam N-8) | 30 | 631 | – | – | –
CC(C)C[C@H]1C(=O)N(C)[C@@H](C)C(=O)N(C)[C@@H](Cc2ccccc2)C(=O)N[C@@H](COC(C)(C)C)C(=O)N[C@H](C(=O)N2CCCCC2)CC(=O)N(C)CCCC(=O)N[C@@H]([C@@H](C)O)C(=O)N1C [DP-677] ([NMeGABA]T[NMeL][NMeA][NMeF]S(tBu)D-Piperidide; lactam N-7) | 7.2 | 45 | – | – | –
CC(C)C[C@H]1C(=O)N[C@H](C(=O)N2CCCCC2)CC(=O)N(C)[C@@H](C)C(=O)N(C)[C@@H](Cc2ccccc2)C(=O)N(C)[C@@H](CC(C)C)C(=O)N[C@@H]([C@@H](C)O)C(=O)N(C)[C@@H](C)C(=O)N1C [DP-678] ([NMeA][NMeF][NMeL]T[NMeA][NMeL]D-Piperidide; lactam N-7) | 26 | 284 | – | – | –
CC(C)C[C@H]1C(=O)N(C)[C@@H](CC(C)C)C(=O)N[C@H](C(=O)N2CCCCC2)CC(=O)N(C)[C@@H](C)C(=O)N(C)[C@@H](Cc2ccccc2)C(=O)N(C)[C@@H](CC(C)C)C(=O)N[C@@H]([C@@H](C)O)C(=O)N1C [DP-679] ([NMeA][NMeF][NMeL]T[NMeL][NMeL]D-Piperidide; lactam N-7) | 25 | 342 | – | – | –
CC(C)C[C@H]1C(=O)N[C@H](C(=O)N2CCCCC2)CC(=O)N(C)CCCC(=O)N(C)[C@@H](Cc2ccccc2)C(=O)N[C@@H]([C@@H](C)O)C(=O)N(C)[C@@H](C)C(=O)N[C@@H](COC(C)(C)C)C(=O)N1C [DP-680] ([NMeGABA][NMeF]T[NMeA]S(tBu)[NMeL]D-Piperidide; lactam N-7) | 15 | 96 | – | – | –
CC(C)C[C@H]1C(=O)N[C@H](C(=O)N2CCCCC2)CC(=O)N(C)CCCC(=O)N(C)[C@@H](Cc2ccccc2)C(=O)N[C@@H]([C@@H](C)O)C(=O)N(C)[C@@H](CC(C)C)C(=O)N[C@@H](COC(C)(C)C)C(=O)N1C [DP-681] ([NMeGABA][NMeF]T[NMeL]S(tBu)[NMeL]D-Piperidide; lactam N-7) | 28 | 275 | – | – | –
